What was measured:
[1] = test system: gastric cancer cell line NCI-N87; assay: MTT growth inhibition assay, NCI-N87; assay type: cell-based; conditions: NCI-N87, gastric carcinoma
Description: (§1) The results were determined by three independent experiments.
(§2) Besides, the above assay was also conducted on gastric cancer cell line NCI-N87, liver cancer cell line HepG2 and J5, lung cancer cell line A549, and oral cancer cell line OECM-1.

caspase-3 = assay: Caspase-3 activity for apoptosis detection (Caspase-Glo); assay type: cell-based, human; conditions: LNCaP cells, 24 h
Description: In General, drug can cause tumor apoptosis mediated activate caspase-3 leading to release fluoresce dye to detect by machine. Caspase-3 activity was measured using testis supernatants with the Caspase-Glo Assay System (Promega, Madison, Wis.) according to the manufacturer's instructions. Briefly, 50 μl of the Caspase-Glo buffer was added to 50 μl of tissue supernatants in a 96-well plate and incubated at room temperature for 60 minutes. Luminescence was measured using a Biotek synergy microplate reader (Biotek, Winooski, Vt.). Background activity levels, based on measurements in homogenization buffer only, were measured and subtracted from values in the testis tissue supernatants. All values were normalized to total protein content. Standard curves were used to determine the linearity of the responses.
Assays were carried out to examine whether K8 (Isochaihulactone) increases LNCaP cells caspase-3 activity which leads to tumor cell apoptosis. Briefly, LNCaP cells were treated with different concentrations of Z-K8 (0.25 to 4 μM) for 24 h. […] Thus, Z-K8 can be used in the treatment of prostate cancer.

AR [2] = assay: Immunohistochemical staining of xenograft tumors, AR; assay type: in vivo; conditions: mice treated with 30 mg/kg (FIG. 8B)
Description: (§3) Mice xenograft tissue samples were fixed in 10% formalin and embedded in paraffin. After routine rehydration, antigen retrieval and blocking, the sections were incubated in the primary antibody at 4° C. overnight. The primary antibody was recognized by the biotinylated secondary antibody and visualized by vectastain avidin-biotin complex peroxidase system (ABC kit) as well as peroxidase substrate 3,3′-diaminobenzidine kit (DAB kit).
(§4) Immunohistochemical staining was conducted using a cleaved caspase-3-specific antibody. […] Similar staining was carried our using an AR-specific antibody.

cleaved caspase-3 = assay: Immunohistochemical staining of xenograft tumors, cleaved caspase-3; assay type: in vivo; conditions: mice treated with 30 mg/kg (FIG. 8A)
Description: as §3, §4

AR [3] = assay: RT-PCR analysis of AR expression; assay type: cell-based, human
Description: Total RNA from LNCaP, PC3, 3T3 cells was isolated as described above. cDNA was synthesized by reverse transcription of 2 μg of total RNA using oligo(dT)12-18 and SuperScript II RNA reverse transcriptase (Invitrogen). The cDNA was then used as the template to amplify the corresponding DNA fragments by PCR using two sets of synthetic oligonucleotide primers. DNA amplification was performed by PCR with the Thermocycler 2400 (PerkinElmer Life and Analytical Sciences, Boston, Mass.) using the following parameters: 35 cycles of denaturing at 95° C. for 1 min, annealing at 60° C. for 1 min, and extension at 72° C. for 2 min. Primers used for the AR PCR amplifications are (F): 5′-ATGGTGAGCAGAGTGCCCTA-3′ (SEQ ID NO: 1) (R): 5′-GTGGTGCTGGAAGCCTCTCCT-3′ (SEQ ID NO: 2) PSA (F) 5′-GGTGACCAAGTTCATGCTGTG-3′ (SEQ ID NO: 3) (R) 5′-GTGTCCTTGATCCACTTCCG-3′ (SEQ ID NO: 4) products were separated on 2% agarose gels, stained with ethidium bromide, and visualized using the Fluor Chem imaging system (Alpha InnoTech, San Leandro, Calif.), and levels of glyceraldehyde-3-phosphate dehydrogenase were used as the control.
RT-PCR was conducted to examine the effect of Z-K8 on several human cancer cells. Briefly, the cells were treated with Z-K8 (0.5 μM to 2 μM) or Luteolin (as a positive control) for 24 h. […]

[4] = test system: oral cancer cell line OECM-1; assay: MTT growth inhibition assay, OECM-1; assay type: cell-based; conditions: OECM-1, oral squamous cell carcinoma
Description: as §1, §2

[5] = test system: lung cancer cell line A549; assay: MTT growth inhibition assay, A549; assay type: cell-based, human; conditions: A549, lung adenocarcinoma
Description: as §1, §2

COc1cc(/C=C2\C(=O)OCC2Cc2ccc3c(c2)OCO3)cc(OC)c1OC (racemic) [Z-K8, Racemic (Z)-β-(3′,4′-Methylenedioxybenzyl)-α-(3′,4′,5′-trimethoxybenzylidene)-γ-butyrolactone]
IC50 [1]: > 100 µM | Caspase-3 Relative activity (caspase-3; 0.25 μM): 1.347 | Caspase-3 Relative activity (caspase-3; 0.5 μM): 1.274 | Caspase-3 Relative activity (caspase-3; 1 μM): 1.784 | Caspase-3 Relative activity (caspase-3; 2 μM): 2.399 | Caspase-3 Relative activity (caspase-3; 4 μM): 6.604 | expression of AR in tumors (IHC) versus control (AR [2]): weaker | expression of cleaved caspase-3 in tumors (IHC) versus control (cleaved caspase-3): increased more | AR expression over time (RT-PCR) (AR [3]; LNCaP cells, 1 μM, different times (FIG. 3B)): decreased AR expression in a time-dependent manner | AR expression (RT-PCR) (AR [3]; human cancer cells, 0.5 μM to 2 μM, 24 h, dose-dependent (FIG. 3A)): down regulated | IC50 [4]: 1 µM | IC50 [5]: 9.8 µM
